In one experiment the test system is human MYD88. As to the kind of experiment: Phage display screening of TIR domain-derived peptide library against immobilized MyD88, NGS analysis after four rounds. Type of experiment: binding. The following applies: for NGS count: phages remaining after fourth round. As to the method: (§1) First, vector cloning was performed by synthesizing a DNA sequence for expressing each peptide belonging to the library constructed in Example 1. Vector cloning was performed using p3/p8 phagemids.
(§2) After the fourth round, the remaining phages were obtained by binding to the finally immobilized target proteins, and peptide sequences binding to the target and the relative distribution of each sequence were confirmed by performing NGS analysis on phagemids in the phages.

In the next experiment the test system is human MAL. As to the kind of experiment: Phage display screening of TIR domain-derived peptide library against immobilized MAL, NGS analysis after four rounds. It is filed as binding. The following applies: for NGS count: phages remaining after fourth round. The procedure:
as §1, §2

The next experiment deals with human MAL (human) (UniProt P58753). As to the kind of experiment: P3 phage display panning on plate-immobilised MAL, after round 4, NGS.
A further experiment concerns the target human MyD88 (human) (UniProt Q99836). As to the kind of experiment: P8 phage display panning on plate-immobilised MyD88, after round 4, NGS.
[1] abbreviates: P3_MyD88: library displayed on P3 coat protein.
[2] abbreviates: P3_MyD88: relative distribution of the sequence in NGS.
[3] abbreviates: P3_MAL: library displayed on P3 coat protein.
Setting [4] is: P3_MAL: relative distribution of the sequence in NGS.
Where [5] appears, read: P8_MAL: library displayed on P8 coat protein.
Setting [6] is: P8_MAL: relative distribution of the sequence in NGS.

Results on 41 molecules are retold here after EP4613859A1, “TLR SIGNALING INHIBITORY PEPTIDE AND COMPOSITION INCLUDING SAME FOR PREVENTION OR TREATMENT OF INFLAMMATORY DISEASES” (Korea Institute of Science and Technology, priority 2022, dated 2025).

Sequence of UniProt P58753 (P58753 79-221 limits assumed): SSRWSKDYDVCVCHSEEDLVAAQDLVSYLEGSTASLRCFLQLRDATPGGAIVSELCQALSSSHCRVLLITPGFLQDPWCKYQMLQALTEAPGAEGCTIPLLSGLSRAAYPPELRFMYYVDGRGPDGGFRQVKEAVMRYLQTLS
Sequence of UniProt Q99836 (Q99836 155-296 limits assumed): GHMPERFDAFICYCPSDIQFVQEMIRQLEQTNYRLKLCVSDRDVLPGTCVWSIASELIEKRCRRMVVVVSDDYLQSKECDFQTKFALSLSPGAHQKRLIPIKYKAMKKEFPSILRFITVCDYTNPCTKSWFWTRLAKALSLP

For NELVHVWSSKANSLVG, the NGS count in the experiment on human MYD88 (setting [1]) is reported as 8816; in the experiment with human MAL (setting [3]), 1836. Further, the Population in the experiment with human MYD88 (setting [2]) came to 2.57%; in the experiment with human MAL (setting [4]), 0.69%.
As to EWIREQLRPALKERLP, the NGS count in the experiment with human MYD88 (setting [1]) stood at 16821; in the experiment on human MAL (setting [3]), 2354. The Population stood at 4.90% in the experiment on human MYD88 (setting [2]) and 0.88% with human MAL (setting [4]).
Regarding KNLFNELVSKNIRTFM, the figures for the NGS count in the experiment on human MYD88 (setting [1]) and in the experiment on human MAL (setting [3]) were 8543 and 3259, respectively. Moreover, the Population is 2.49% in the experiment with human MYD88 (setting [2]) and 1.22% with human MAL (setting [4]).
For the molecule DTKLKKGESIAPELLR, the values for the NGS count in the experiment with human MYD88 (setting [1]) and in the experiment with human MAL (setting [5]) were 2465 and 5617, respectively. Further, the figures for the Population with human MYD88 (setting [2]) and with human MAL (setting [6]) were 0.72% and 1.74%, respectively.
In the case of NQWRNALTAAANLSGW, the NGS count worked out at 28662 in the experiment with human MYD88 (setting [1]), 25831 in the experiment with human MAL (setting [3]) and 848 in the experiment with human MAL (setting [5]). The Population in the experiment on human MYD88 (setting [2]) is recorded as 8.35%; in the experiment on human MAL (setting [4]), 9.71%.
With DHHLDLPRGKAIKPEILG, the values for the NGS count in the experiment on human MYD88 (setting [1]) and with human MAL (setting [3]) were 26722 and 2280, respectively. Besides, the Population in the experiment on human MYD88 (setting [2]) is given as 7.78%; in the experiment with human MAL (setting [4]) it was 0.86%.
Take YLKWGYPWFWDRLRFA: the results for the NGS count with human MYD88 (setting [1]), with human MAL (setting [3]) and in the experiment with human MAL (setting [5]) were 7321, 1680 and 517, respectively. Besides, the values for the Population in the experiment on human MYD88 (setting [2]) and in the experiment with human MAL (setting [4]) were 2.13% and 0.63%, respectively.
With YNFISHLYDALHRNRI, the NGS count with human MYD88 (setting [1]) came out at 2891; in the experiment with human MAL (setting [3]) it was 2678. Besides, the Population was found to be 0.84% in the experiment with human MYD88 (setting [2]) and 1.01% in the experiment on human MAL (setting [4]).
As to GFLYQAFAREGFKIFM, the NGS count turned out to be 2579 with human MYD88 (setting [1]) and 1764 in the experiment on human MAL (setting [3]). Moreover, the Population in the experiment with human MYD88 (setting [2]) came to 0.75%; in the experiment on human MAL (setting [4]), 0.66%.
For KEVEGWRDALTKVASL the same measures were 5187, 3758, 1.80% and 1.41%.
On to QLIQQWIELHLHQLHL, for which the values for the NGS count in the experiment with human MYD88 (P8_MyD88: library displayed on P8 coat protein) and with human MAL (setting [5]) were 1605 and 9394, respectively. Further, the Population with human MYD88 (P8_MyD88: relative distribution of the sequence in NGS) was 0.62%; with human MAL (setting [6]) it was 2.90%.
On to LKWGDPYFWSKLRYAM, for which the NGS count in the experiment with human MYD88 (setting [1]) is given as 8310; with human MAL (setting [3]), 5128. For the same molecule, the Population came to 2.42% in the experiment with human MYD88 (setting [2]) and 1.93% in the experiment on human MAL (setting [4]).
Regarding SSFREGLWRLLELSKK, the figures for the NGS count with human MYD88 (setting [1]) and in the experiment with human MAL (setting [3]) were 79510 and 29955, respectively. In addition, the Population in the experiment on human MYD88 (setting [2]) amounted to 23.15%; in the experiment with human MAL (setting [4]), 11.26%.
Take VEPTQVRKQSGAVENA: the NGS count in the experiment on human MAL (setting [3]) is recorded as 2283. In the experiment on human MAL (setting [4]), this molecule registered a Population of 0.86%.
YAFTGHLHRYLVQRGV: the NGS count in the experiment with human MYD88 (setting [1]) was found to be 13420; in the experiment on human MAL (setting [3]), 43764. Also, the Population is 3.91% in the experiment on human MYD88 (setting [2]) and 16.44% with human MAL (setting [4]).
RNNFIGHLYQALYRIG yielded an NGS count in the experiment on human MAL (setting [5]) of 3120. The molecule further returned a Population with human MAL (setting [6]) of 0.96%.
In turn, FLNFRGLDVRNYFLGH gave an NGS count with human MAL (setting [3]) of 2855. The molecule further registered a Population in the experiment on human MAL (setting [4]) of 1.07%.
For HHKGSYGEALAEHEKR the same measures were 3056 and 1.15%.
Regarding FTLAVHVRNWLVGGFI, in the experiment with human MAL (setting [5]), the NGS count was 520.
As for LKVESWRQALEKAGKL, the NGS count stood at 16847 with human MYD88 (setting [1]) and 5180 in the experiment with human MAL (setting [3]). Moreover, the results for the Population in the experiment with human MYD88 (setting [2]) and in the experiment on human MAL (setting [4]) were 4.91% and 2.32%, respectively.
For ESILNQLRRSSQSIAN, the NGS count is listed as 1976 in the experiment on human MYD88 (setting [1]) and 3680 with human MAL (setting [3]). The Population in the experiment on human MYD88 (setting [2]) amounted to 0.58%; in the experiment on human MAL (setting [4]), 1.38%.
On to SFFWNKLRYHLPAPQH, for which, in the experiment with human MAL (setting [3]), the NGS count turned out to be 2297. This molecule also registered a Population in the experiment on human MAL (setting [4]) of 0.86%.
On to WFMMKFRTVLDHVNDV, for which the NGS count in the experiment on human MAL (setting [5]) stood at 2269.
In the case of LQNQWKLALTKVANLV, in the experiment on human MAL (setting [3]), the NGS count was 2285. Moreover, the Population in the experiment with human MAL (setting [4]) is listed as 0.86%.
As to LVAHEISKKMKIFATI, the values for the NGS count in the experiment with human MYD88 (setting [1]) and with human MAL (setting [3]) were 17452 and 1671, respectively. Besides, the Population is listed as 5.08% in the experiment with human MYD88 (setting [2]) and 0.63% in the experiment with human MAL (setting [4]).
In the experiment with human MAL (human), LQNQWKLALTKVANLV showed an NGS count of 2280 count and a Population of 0.86%.
Regarding KWFWDKLIYALSRNPH, in the experiment with human MAL (human), the NGS count stood at 2800 count and the Population was found to be 1.05%.
For the molecule KMQKWKDALYEAANLS, in the experiment with human MAL (human), the NGS count was 4430 count and the Population is 1.66%.
Consider SLRKNLVSNLIEEFKR, for which, in the experiment with human MAL (human), the NGS count was found to be 3570 count and the Population amounted to 1.34%.
Consider HHKGSYGEALAEHEKR, for which, in the experiment with human MAL (human), the NGS count is 3060 count and the Population is 1.15%.
For HQAFWNRLWAKLKPPT, in that order: 1930 count and 0.73%.
In the experiment with human MAL (human), RLLKWKEALHQFHSWV showed an NGS count of 14900 count and a Population of 5.61%.
For the molecule RGFLSHLRHHLQAKDH, in the experiment with human MAL (human), the NGS count was 15100 count and the Population is 5.66%.
VEPTQVRKQSGAVENA: in the experiment with human MAL (human), the NGS count amounted to 2280 count and the Population stood at 0.86%.
In the case of DWVWDYLLPNLEGPAG, in the experiment with human MyD88 (human), the NGS count came to 19400 count and the Population was 7.47%.
In the experiment with human MAL (human), FLNFRGLDVRNYFLGH displayed an NGS count of 2860 count and a Population of 1.07%.
As for DPQDLDWFYERLVSLF, in the experiment with human MyD88 (human), the NGS count is 54800 count and the Population was found to be 21.1%.
Regarding SFFWNKLRYHLPAPQH, in the experiment with human MAL (human), the NGS count worked out at 2300 count and the Population amounted to 0.86%.
With LGYHWIDWEYFVGIED, in the experiment with human MyD88 (human), the NGS count was determined as 25200 count and the Population is 9.72%.
In the experiment with human MAL (human), PNLRTKVLNYLMRTKT showed an NGS count of 26900 count and a Population of 10.1%.
Turning to DWFLSKLSQHILKREK, in the experiment with human MAL (human), the NGS count stood at 4580 count and the Population was 1.72%.
